Where [1] appears, read: Capnocytophaga ochraceus, MH medium, 96 hours anaerobic cultivation at 37° C., less than 10 colonies on LRBB agar.
[2] abbreviates: Fusobacterium nucleanum, MH medium, 96 hours anaerobic cultivation at 37° C., less than 10 colonies on LRBB agar.
Where [3] appears, read: Lactobacillus casei, MH medium, 96 hours anaerobic cultivation at 37° C., less than 10 colonies on LRBB agar.
Setting [4] is: Bacterioides gingivalis, MH medium, 96 hours anaerobic cultivation at 37° C., less than 10 colonies on LRBB agar.
Setting [5] is: Streptococcuis mutans, MH medium, 96 hours anaerobic cultivation at 37° C., less than 10 colonies on LRBB agar.
The mark [6] stands for this setting: Acetinobacillus, MH medium, 96 hours anaerobic cultivation at 37° C., less than 10 colonies on LRBB agar.
Setting [7] is: Streptococcus sanguis, MH medium, 96 hours anaerobic cultivation at 37° C., less than 10 colonies on LRBB agar.

Like-named read-outs stand apart in the source and are kept apart here.

For the molecule `O=C([O-])O.[Na+]` [NaHCO3, sodium bicarbonate], the disinfection concentration in the assay on Capnocytophaga ochraceus stood at 200; with Fusobacterium nucleanum it was 450; with Lactobacillus casei, 500; in the assay with Bacterioides gingivalis, 500; in the assay on Streptococcuis mutans, 450; in the assay with Acetinobacillus, 250. This molecule displayed a disinfection concentration with Streptococcus sanguis of 500.

As to `O=C([O-])O.[K+]` [KHCO3, potassium bicarbonate], the disinfection concentration in the assay with Capnocytophaga ochraceus was 150; with Lactobacillus casei, 600; with Eikenella corrdens it was 300; in the assay with Bacterioides gingivalis it was 100; in the assay on Streptococcuis mutans, 600; in the assay on Acetinobacillus, 300. Besides, the disinfection concentration in the assay with Streptococcus sanguis is on record as 300.

For the molecule `[Cl-].[Na+]` [NaCl, sodium chloride], the disinfection concentration in the assay on Capnocytophaga ochraceus (setting [1]) is recorded as 350; with Fusobacterium nucleanum (setting [2]), 400; in the assay with Lactobacillus casei (setting [3]) it was 1,200; with Eikenella corrdens (Eikenella corrdens, MH medium, 96 hours anaerobic cultivation at 37° C., less than 10 colonies on LRBB agar), 400; in the assay with Bacterioides gingivalis (setting [4]), 650; in the assay on Streptococcuis mutans (setting [5]), 1,300. The disinfection concentration with Acetinobacillus (setting [6]) was 250; in the assay on Streptococcus sanguis (setting [7]) it was 2,200.

In the case of `O=S(=O)([O-])[O-].[Mg+2]` [MgSO4, magnesium sulfate], the disinfection concentration with Capnocytophaga ochraceus (setting [1]) was 400; in the assay with Fusobacterium nucleanum (setting [2]), 300; in the assay on Lactobacillus casei (setting [3]) it was 1,500; in the assay with Bacterioides gingivalis (setting [4]), 600; with Streptococcuis mutans (setting [5]), 1,700; in the assay with Acetinobacillus (setting [6]), 300. Further, the disinfection concentration in the assay with Streptococcus sanguis (setting [7]) was 1,600.

Source of the values: patent US20020068038A1, “Foaming tablet for cleaning the oral cavity and preparation method thereof” (priority 1998, published 2002).
